Reference: US12558354B2, “Tumor necrosis factor alpha (TNF-alpha) small molecule inhibitor” (AJOU UNIVERSITY INDUSTRY-ACADEMIC COOPERATION FOUNDATION, priority 2019, dated 2026)
pIC50, pKd: −log10 of the molar value. “Also recorded” adds a separate entry of the source.

What was measured:
TNF-α = TNF-α (Homo sapiens, UniProt P01375); settings: target TNF-α, literature; cited from earlier work
[1] = test system: human dermal fibroblasts (HDFs); experiment: Cell viability (MTT) assay in human dermal fibroblasts; type: cell-based; settings: 24 hours
Protocol: (§1) FIG. 8A is a graph showing the effects of TIM1 and a solvent thereof, DMSO, on the viability of human dermal fibroblasts, in which cells (10^4/well) were treated with DMSO at 3 different concentrations (0.5, 1, and 2%) and TIM1 at 8 different concentrations (1, 3.125, 6.25, 12.5, 25, 50, 100, and 200 μM) for 24 hours, and the cell viability was monitored by an MTT assay. FIG. 8B is a graph showing the effect of TIM1 on the viability of a mouse fibrosarcoma cell line [L929 (1.5×10^4/well)] under the same conditions as in FIG. 8A. All experiments were independently performed 4 times, and mean±SEM of the independent experiments was calculated using a two-tailed paired Student's t-test (*P<0.05).
(§2) In order to measure cell viability, a colorimetric […] (MTT) assay (Sigma-Aldrich Co.) was performed. HDFs were seeded at a density of 10^4/well in 96-well plates (BD Biosciences, San Jose, CA, USA), grown overnight, and then treated with a test compound at various concentrations for 24 hours. The next day, the medium was replaced with a medium (100 μl/well) containing a 10% MTT solution, followed by incubated at 37° C. for 3 hours. This solution was replaced with DMSO (100 μl/well), and the plates were incubated at room temperature for 30 minutes. Thereafter, the plates were read at a wavelength of 540 nm using a microplate spectrophotometer system (Molecular Devices, Silicon Valley, California).

[2] = test system: murine fibrosarcoma cell line L929; experiment: Cell viability (MTT) assay in L929 cells; type: cell-based; settings: L929, up to 200 μM, 24 hours
Protocol: as §1
as §2, with “This solution was replaced with DMSO (100 μl/well), and the plates were incubated at room temperature for 30 minutes.” left out

[3] = molecular target: T1, recombinant human TNF-α (rhTNF-α) (Homo sapiens, UniProt P01375); experiment: TNF-α-mediated hIL-8 secretion in HDFs (ELISA); type: cell-based; settings: 24 hours
T1 construct: purchased Miltenyi Biotec
Protocol: (§3) HDFs were seeded at a density of 10^4/well in a 96-well plate (BD Biosciences) and grown overnight. The cells were treated for 24 hours with a 1-hour-pre-incubated mixture of rhTNF-α and test compounds. IL-8 secretion was assessed by a human IL-8 uncoated ELISA kit (eBioscience, Inc., San Diego, CA, USA), and IL-6 secretion level was assessed by a human IL-6 ELISA MAX™ Deluxe kit (BioLegend, San Diego, CA, USA). The microtiter plates were then analyzed at an appropriate wavelength using a microplate spectrophotometer system (Molecular Devices, Silicon Valley, California).

[4] = molecular target: T1, recombinant human TNF-α (rhTNF-α); experiment: TNF-α-mediated hIL-6 secretion in HDFs (ELISA); type: cell-based; settings: 24 hours
Protocol: as §3

[5] = molecular target: T1, recombinant human TNF-α (rhTNF-α); experiment: Cell death attenuation assay, act-D-sensitized HDFs with rhTNF-α; type: cell-based
Protocol: (§4) HDFs (10^4/well) and L929 cell lines (1.5×10^4/well) were seeded in 96-well plates and grown overnight under appropriate conditions. The next day, HDFs and L929 cells were pretreated with 1 μg/ml act-D and 0.1 μg/ml act-D, respectively, followed by incubated for 30 minutes. Thereafter, a 1-hour-preincubated mixture of 10 ng/ml rhTNFα with test compounds or 1 ng/ml rmTNFα with test compounds, was applied to HDFs and L929 cells, respectively. The cells were incubated for 24 hours post-treatment, and survival was measured by the MTT assay. Cell viability was calculated with reference to the no-treatment control group. The obtained values were normalized with respect to the act-D treatment group and then used to calculate death attenuation (%) rate using the following equation: […]

[6] = molecular target: T2, recombinant mouse TNF-α (rmTNF-α) (Mus musculus, UniProt P06804); experiment: Cell death attenuation assay, act-D-sensitized L929 cells with rmTNF-α; type: cell-based
T2 construct: purchased Miltenyi Biotec
T2 sequence (P06804 80-235 limits assumed): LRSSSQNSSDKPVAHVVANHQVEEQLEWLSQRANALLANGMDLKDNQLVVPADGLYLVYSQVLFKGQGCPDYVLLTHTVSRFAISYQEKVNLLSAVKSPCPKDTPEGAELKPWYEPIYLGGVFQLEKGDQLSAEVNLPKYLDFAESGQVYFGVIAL
Protocol: as §4

[7] = test system: TNF-α-dependent signaling pathways (NF-κB, MAPKs, caspases 3 and 8); experiment: Western blot of TNF-α-dependent signaling pathways in L929 cells; type: cell-based, mouse
Protocol: Total protein was extracted from the treated cells using an M-PER mammalian protein extraction reagent (Thermo Fisher Scientific, Inc.). The cell pellets were dissolved in a mixture of M-PER with protease and phosphatase inhibitor cocktail (Thermo Fisher Scientific, Inc.) at 4° C. for 1 minute, and the lysate thus obtained was centrifuged at 16,000×g and 4° C. for 10 minutes. The supernatant containing the protein was collected in a separate Eppendorf tube, and a BCA assay (Sigma-Aldrich) was performed for protein quantification. 20 Hg of a protein sample was placed in a 10-12% polyacrylamide gel (containing SDS), and the separated protein was transferred to a nitrocellulose membrane (HYBOND ECL™; Amersham Pharmacia Biotech Inc, Piscataway, New Jersey) of a mini-PROTEAN tetra cell and mini trans-blot electrophoretic transfer cell system (Bio-Rad Laboratories). Membrane blocking was performed with 5% nonfat dried milk for 1 hour. The membrane was subjected to immunoblotting through gentle shaking overnight at a temperature of 4° C. with certain primary antibodies, i.e. antibodies to (phospho-)p-p65, p-JNK, JNK, p-ERK, ERK, cleaved caspase 3 (Cell Signaling Technology Inc., Danvers, MA, USA), p-p38, caspase 8, and β-actin (Santa Cruz Biotechnology Inc., Dallas, TX, USA). The next day, after rigorous washing with PBST, the membrane was incubated with peroxidase-conjugated anti-mouse or anti-rabbit IgG antibodies at room temperature for 2 hours. Protein was detected using a SuperSignal West Pico ECL solution (Thermo Fisher Scientific, Inc.) and visualized with a CHEMIDOC™ Touch Imaging System (Bio-Rad Laboratories).

[8] = molecular target: T3, recombinant human TNF-α homotrimer (Homo sapiens, UniProt P01375); experiment: Dissociation of TNF-α trimerization assembly (cross-linking, Western blot), human; type: biochemical; settings: cross-linked with BS3, Western blot
T3 construct: purchased Miltenyi Biotec
Protocol: (§5) Inhibitors were incubated with 100 ng of recombinant TNF-α at 37° C. for 1 hour and then cross-linked with 4.8 mM BS3 (Thermo Fisher Scientific, Inc.) at room temperature for 30 minutes. Then, a 1/10 volume of 1 M Tris-HCl (pH 7.5) was added to stop the reaction. Thereafter, samples were separated by SDS-PAGE, followed by Western blotting with anti-TNF-α antibody (Cell Signaling Technology Inc.).

[9] = molecular target: T4, recombinant mouse TNF-α homotrimer (Mus musculus, UniProt P06804); experiment: Dissociation of TNF-α trimerization assembly (cross-linking, Western blot), mouse; type: biochemical; settings: cross-linked with BS3, Western blot
T4 construct: purchased Miltenyi Biotec
T4 sequence (P06804 80-235 limits assumed): T2 sequence (P06804 80-235 limits assumed)
Protocol: as §5

TNFRI = molecular target: T5, TNFRI (Homo sapiens, UniProt P19438); settings: target TNFRI, literature; cited from earlier work
T5 sequence (P19438 30-455): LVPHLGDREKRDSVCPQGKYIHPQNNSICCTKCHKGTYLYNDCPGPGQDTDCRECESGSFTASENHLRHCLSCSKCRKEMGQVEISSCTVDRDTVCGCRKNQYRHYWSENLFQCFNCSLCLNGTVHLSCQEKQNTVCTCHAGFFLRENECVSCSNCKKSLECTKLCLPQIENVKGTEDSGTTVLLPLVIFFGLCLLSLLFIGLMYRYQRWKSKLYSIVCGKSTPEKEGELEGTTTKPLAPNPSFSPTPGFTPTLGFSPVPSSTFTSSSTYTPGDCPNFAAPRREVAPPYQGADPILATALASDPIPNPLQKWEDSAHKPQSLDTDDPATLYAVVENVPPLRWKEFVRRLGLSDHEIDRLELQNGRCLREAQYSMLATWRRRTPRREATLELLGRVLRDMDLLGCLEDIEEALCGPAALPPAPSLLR

[10] = HDFs, rhTNF-α 1 ng/ml pre-incubated 1 hour
[11] = L929, 20 μM, rmTNF-α 1 ng/ml, 5-30 minutes

T1 sequence (P01375 77-233 limits assumed): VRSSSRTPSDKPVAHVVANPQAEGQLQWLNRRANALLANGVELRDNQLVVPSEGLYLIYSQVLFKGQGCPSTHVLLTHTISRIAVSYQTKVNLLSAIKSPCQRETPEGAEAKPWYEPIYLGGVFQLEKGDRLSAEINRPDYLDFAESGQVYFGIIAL
TNF-α, sequence (P01375 77-233 limits assumed, species assumed): as the sequence (P01375 77-233 limits assumed) above
T3 sequence (P01375 77-233 limits assumed): as above

O=C1Sc2c(S(=O)(=O)Nc3ccc(O)cc3)cc(S(=O)(=O)Nc3ccc(O)cc3)c3cccc1c23 [AP-906/41640035]
pIC50 (TNF-α): 4.85

C#Cc1cccc(Nc2nc(-c3cc(C)n(NC(=O)c4nn(C)c(=O)c5ccccc45)c3C)cs2)c1 [TIM1, N-(3-{2-[(3-ethynylphenyl)amino]-1,3-thiazol-4-yl}-2,5-dimethylpyrrol-1-yl)-3-methyl-4-oxophthalazine-1-carboxamide]
lethality / cytotoxicity at increasing concentrations ([1]; HDF, up to 200 μM): no lethality; also recorded: does not show cytotoxicity up to 200 μM | cytotoxicity (cell viability, MTT assay) ([1]; HDFs): no cytotoxicity up to a concentration of 50 μM; also recorded: did not exhibit cytotoxicity even at high concentrations (up to 100 μM) | lethality at increasing concentrations [2]: no lethality | inhibition of TNF-α-mediated hIL-8 secretion ([3]; HDFs, 1, 10, 50 and 100 μM): inhibited TNF-α-mediated secretion | pIC50 [3, 10]: 4.78 | inhibition of TNF-α-mediated hIL-6 secretion ([4]; HDFs, 1, 10, 50 and 100 μM): inhibited TNF-α-mediated secretion | pIC50 [4, 10]: 5.20 | pIC50 [5]: 4.58 | attenuation of TNF-α-induced apoptosis ([5]; act-D-sensitized HDFs, rhTNF-α 10 ng/ml, 1-100 μM): Significant attenuation | pIC50 [6]: 4.60 | inhibition of rmTNF-α-mediated proapoptotic pathway / cell death ([6]; act-D-sensitized L929, rmTNF-α 1 ng/ml, 1-100 μM): inhibited the rmTNF-α-mediated proapoptotic pathway in L929 cells in a concentration-dependent manner | TNF-α-mediated phosphorylation of the p65 subunit (NF-κB) [7, 11]: attenuated | phosphorylation of MAPKs (p38 MAPK, JNK, ERK) [7, 11]: inhibited | formation of cleaved active caspases 3 and 8 ([7]; L929, TNF-α stimulation): blocked | formation of functional homotrimers, rhTNF-α [8]: inhibited the formation of functional homotrimers | formation of functional homotrimers, rmTNF-α [9]: inhibited the formation of functional homotrimers

Physcion-8-O-β-D-monoglucoside
pKd (TNFRI): 6.42
